Source: patent US20260184697A1, “EZH1/2 INHIBITOR, PREPARATION THEREOF, AND USE THEREOF IN ANTI-TUMOR THERAPY” (JIANGSU TASLY DIYI PHARMACEUTICAL CO., LTD., priority 2022, published 2026)
Read-outs that look alike come from different tables or passages of the source.

Experiments:
[1] = system: H3K27Me3 methylation in Karpas-422 cells; test: H3K27Me3 cell method, inhibition of H3K27Me3 methylation (Test Example 2); format: cell-based, human; settings: Homo sapiens, KARPAS-422, 72 h, Karpas-422 cells, 3 days incubation, HTRF signal; read-out: Test Example 2 H3K27Me3 inhibition (Karpas-422) IC50
Procedure: Karpas-422 (Nanjing Kebai, CBP60629) cells were seeded in a 96-well plate (Corning, 3894) at 15,000 cells per well in culture medium (80% 1640 (Hyclone, SH30809.01)+20% FBS (Corning, 35-081-CV)), and then added with different concentrations of compounds for treatment. The cell growth group without adding compounds is used as a positive control (maximum signal control), and the medium is used as a negative control (minimum signal control), while ensuring that in each reaction well, the final concentration of DMSO was 0.2%. Compounds and cells were incubated for 3 days in a cell culture incubator (37° C., 5% CO2). The 96-well plate was taken out from the cell culture incubator and equilibrated to room temperature, and 25 ul of cell suspension was taken out into a 384-well plate. The CCK8 (Beiyuntian, C0040) detection reagent was added, incubated at 37° C. for 1 h, and […] was detected. The rest of the cells followed the procedure of the kit EPIgeneous H3K27Me3 cellular kit (Cisbio, 62KC3PAE) to carry out experiment, read HTRF signal with BMG PHERAStar. […] By GraphPad Prism 6 with log(inhibitor)vs.response-Variable slope model simulation, the IC50 of the compound on cell activity inhibition was calculated. The fitting equation is: Y=Bottom+(Top−Bottom)/(1+10^((Log IC50−X)*HillSlope)), wherein Y represents the inhibition rate, and X represents the known concentration of the compound after Log.

[2] = target: T1, EZH2/SUZ/EED (Homo sapiens, UniProt O75530+Q15022+Q15910); test: Inhibitory effect on EZH2 by the MTase-Glo method (Test Example 1); format: biochemical; settings: EZH2/SUZ/EED 6.25 nM, H3 peptide 10 μM, SAM 3 μM, 30° C. 3 h, read-out: Test Example 1 WT EZH2 IC50
T1 construct: purchased BPS 51003
T1 sequence (Q15910 2-746 limits assumed): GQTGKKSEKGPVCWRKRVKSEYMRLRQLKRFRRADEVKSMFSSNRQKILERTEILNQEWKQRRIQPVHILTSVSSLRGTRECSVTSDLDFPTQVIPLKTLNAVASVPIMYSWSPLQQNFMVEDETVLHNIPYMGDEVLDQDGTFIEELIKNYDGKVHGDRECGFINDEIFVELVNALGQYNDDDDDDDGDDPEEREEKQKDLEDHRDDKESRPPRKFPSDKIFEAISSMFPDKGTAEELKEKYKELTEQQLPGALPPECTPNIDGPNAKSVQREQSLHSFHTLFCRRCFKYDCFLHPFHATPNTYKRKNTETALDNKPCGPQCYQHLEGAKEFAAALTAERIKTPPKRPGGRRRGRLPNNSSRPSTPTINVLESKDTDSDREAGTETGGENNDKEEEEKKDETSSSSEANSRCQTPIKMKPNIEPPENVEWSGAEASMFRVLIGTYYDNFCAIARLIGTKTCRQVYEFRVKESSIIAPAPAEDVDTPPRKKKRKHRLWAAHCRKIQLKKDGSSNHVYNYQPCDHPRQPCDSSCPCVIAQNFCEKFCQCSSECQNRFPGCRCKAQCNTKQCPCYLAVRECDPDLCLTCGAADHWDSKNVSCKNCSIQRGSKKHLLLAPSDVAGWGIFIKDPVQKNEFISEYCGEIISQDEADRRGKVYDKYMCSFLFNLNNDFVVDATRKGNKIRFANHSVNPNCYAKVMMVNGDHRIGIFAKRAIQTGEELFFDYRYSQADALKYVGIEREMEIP
T1 sequence (Q15022 2-739 partner limits assumed): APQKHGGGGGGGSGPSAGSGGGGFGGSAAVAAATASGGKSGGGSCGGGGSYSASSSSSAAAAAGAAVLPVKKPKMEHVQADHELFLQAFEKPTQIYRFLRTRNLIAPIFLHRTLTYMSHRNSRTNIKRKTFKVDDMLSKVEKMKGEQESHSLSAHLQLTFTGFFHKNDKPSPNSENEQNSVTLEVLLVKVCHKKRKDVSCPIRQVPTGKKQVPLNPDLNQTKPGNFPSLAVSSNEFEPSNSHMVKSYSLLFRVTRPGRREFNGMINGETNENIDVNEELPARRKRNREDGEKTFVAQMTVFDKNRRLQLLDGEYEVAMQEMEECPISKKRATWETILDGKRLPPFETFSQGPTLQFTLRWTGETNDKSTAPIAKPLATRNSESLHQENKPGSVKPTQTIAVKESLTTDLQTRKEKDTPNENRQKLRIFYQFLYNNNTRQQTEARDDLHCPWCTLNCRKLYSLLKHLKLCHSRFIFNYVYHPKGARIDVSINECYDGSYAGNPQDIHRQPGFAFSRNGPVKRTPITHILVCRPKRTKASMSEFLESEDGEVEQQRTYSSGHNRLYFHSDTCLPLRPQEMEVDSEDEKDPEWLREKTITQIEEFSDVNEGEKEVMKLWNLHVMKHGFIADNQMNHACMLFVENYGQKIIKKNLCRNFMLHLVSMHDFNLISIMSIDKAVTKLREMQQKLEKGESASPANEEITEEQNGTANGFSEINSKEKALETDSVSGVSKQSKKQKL
T1 sequence (O75530 2-441 partner limits assumed): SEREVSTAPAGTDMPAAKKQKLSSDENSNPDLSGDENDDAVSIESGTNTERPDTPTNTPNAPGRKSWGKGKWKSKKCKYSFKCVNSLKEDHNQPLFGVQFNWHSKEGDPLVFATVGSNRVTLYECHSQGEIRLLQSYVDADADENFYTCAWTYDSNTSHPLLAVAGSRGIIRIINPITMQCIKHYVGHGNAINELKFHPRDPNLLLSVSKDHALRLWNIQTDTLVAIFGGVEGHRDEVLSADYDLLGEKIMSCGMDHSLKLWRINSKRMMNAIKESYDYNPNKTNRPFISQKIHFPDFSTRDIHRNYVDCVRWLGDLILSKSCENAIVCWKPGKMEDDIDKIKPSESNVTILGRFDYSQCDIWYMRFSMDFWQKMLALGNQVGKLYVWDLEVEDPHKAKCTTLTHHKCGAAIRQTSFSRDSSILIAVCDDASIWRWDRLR
Method in brief: (§1)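 EZH2/SUZ/EED (6.25 nM) or EZH1/SUZ/EED (25 nM) pre-incubated 15 min with compound in pH 7.6 Bicine buffer, 0.5% DMSO. Biotinylated H3(21-44) peptide 10 μM plus SAM 3 μM reacted 3 h at 30 °C; MTase-Glo luminescence normalized to controls, IC50 from variable-slope fit.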

[3] = system: Karpas-422 cells; test: Anti-proliferation by Cell Titer-Glo method (Test Example 3); format: cell-based; settings: Homo sapiens
Procedure: Karpas-422 (Nanjing Kebai, CBP60629) cells were seeded in a 96-well plate (Corning, 3894) at 1,000 cells per well in growth medium (80% 1640 (Hyclone, SH30809.01)+20% FBS (Corning, 35-081-CV)), in a total of 100 μL, and then was added with 25 μL of 5-fold different concentrations of compounds diluted in growth medium. The cell growth group without compound addition was used as a positive control (maximum signal control), and the medium was used as a negative control (minimum signal control), while ensuring that the final contration of DMSO in each reaction well was 0.2%. Then the 96-well cell plate was placed in a cell culture incubator (37° C., 5% CO2) and incubated for 3 days. On the fourth day, the cell culture plate was taken out of the incubator, using a row gun to gently blow the cells up and down to mix, removing 62.5 μL of the cell suspension, adding 50 μL of growth medium and 12.5 μL of compounds of 5 times different concentrations, and then putting them in the cell incubator to incubate for 4 days. On the eighth day, the same method was used as the fourth day to treat the cells, then incubating in the cell culture incubator for 3 days. On the eleventh day, the Cell-Titer Glo (Promega, G7573) was used to detect cell viability, and a microplate reader was used to detect the signal value of luminescence.
The inhibition rate of different concentrations of compounds on cells was calculated as inhibition rate=[1−(compound signal value−negative control signal value)/(positive control signal value-negative control signal value)][…]. The IC50 of the compound on cell activity inhibition was calculated by GraphPad Prism 6 with log(inhibitor) vs. response-Variable slope model fitting. The fitting equation is: Y=Bottom+(Top−Bottom)/(1+10^((Log IC50−X)*Hill Slope)), wherein Y represents the inhibition rate, and X represents the known concentration of the compound after Log.

[4] = target: T2, EZH1/SUZ/EED (Homo sapiens, UniProt O75530+Q15022+Q92800); test: Inhibitory effect on EZH1 by the MTase-Glo method (Test Example 1); format: biochemical; settings: EZH1/SUZ/EED 25 nM, H3 peptide 10 μM, SAM 3 μM, 30° C. 3 h, read-out: Test Example 1 WT EZH1 IC50
T2 construct: purchased BPS 51006
T2 sequence (Q92800 2-747 limits assumed): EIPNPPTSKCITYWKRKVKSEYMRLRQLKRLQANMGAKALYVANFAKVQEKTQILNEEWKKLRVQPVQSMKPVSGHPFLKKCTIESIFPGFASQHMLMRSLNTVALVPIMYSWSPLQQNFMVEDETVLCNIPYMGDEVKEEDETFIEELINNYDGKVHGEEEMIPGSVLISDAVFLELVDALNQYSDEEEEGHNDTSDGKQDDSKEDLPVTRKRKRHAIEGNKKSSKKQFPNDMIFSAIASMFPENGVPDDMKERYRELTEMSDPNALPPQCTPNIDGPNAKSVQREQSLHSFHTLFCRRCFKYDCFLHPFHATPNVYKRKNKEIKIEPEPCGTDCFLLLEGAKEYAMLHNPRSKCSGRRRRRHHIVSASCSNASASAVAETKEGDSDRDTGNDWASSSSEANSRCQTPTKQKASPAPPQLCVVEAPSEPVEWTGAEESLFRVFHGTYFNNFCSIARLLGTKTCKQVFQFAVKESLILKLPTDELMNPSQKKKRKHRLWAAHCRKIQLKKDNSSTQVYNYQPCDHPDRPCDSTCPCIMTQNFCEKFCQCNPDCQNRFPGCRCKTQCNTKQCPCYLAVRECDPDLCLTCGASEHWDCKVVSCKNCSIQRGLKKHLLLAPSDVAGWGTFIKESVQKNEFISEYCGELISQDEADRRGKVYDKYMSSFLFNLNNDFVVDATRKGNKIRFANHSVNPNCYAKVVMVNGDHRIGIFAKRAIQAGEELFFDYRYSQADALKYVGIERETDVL
T2 sequence (Q15022 2-739 partner limits assumed): as the sequence (Q15022 2-739 partner limits assumed) above
T2 sequence (O75530 2-441 partner limits assumed): as the sequence (O75530 2-441 partner limits assumed) above
Method in brief: as §1

[5] = Karpas-422 cells, Cell-Titer Glo on the eleventh day, read-out: Test Example 3 Karpas-422 cell anti-proliferation IC50
[6] = KARPAS-422, read-out: Test Example 3 Karpas-422 cell anti-proliferation IC50(nM)

| SMILES | IC50 [1] [nM] | IC50 [2] [nM] | IC50 [3, 5] [nM] | IC50 [4] [nM] | IC50 [3, 6] [nM] |
| --- | --- | --- | --- | --- | --- |
| CSc1cc(C)[nH]c(=O)c1CNC(=O)c1cc(Cl)c2c(c1C)O[C@@H]([C@H]1CC[C@H](N3CCN(C)CC3)CC1)CO2 [Compound 19] | 284 | 3.4 | 89.5 | 26.3 | – |
| CSc1cc(C)[nH]c(=O)c1CNC(=O)c1cc(Cl)c2c(c1C)OC(C1CCN(CC3CC3)CC1)CO2 (stereo not shown) [Compound 16] | 85.9 | 5.2 | 19.8 | 29.6 | – |
| Cc1cc(C)c(CNC(=O)c2cc(Cl)c3c(c2C)O[C@@H](C2CCC(N(C)C)CC2)CO3)c(=O)[nH]1 (stereo partly shown) [Compound 53] | 5 | 3 | 14.1 | 26.8 | – |
| COc1cc(C)[nH]c(=O)c1CNC(=O)c1cc(Cl)c2c(c1C)O[C@@H]([C@H]1CC[C@H](N3CC[C@@H](OC)C3)CC1)CO2 [Compound 122] | – | – | 472 | – | – |
| C#Cc1cc(C(=O)NCc2c(SC)cc(C)[nH]c2=O)c(C)c2c1OC[C@H]([C@H]1CC[C@@H](N3CC(OC)C3)CC1)O2 [Compound 165] | 1.4 | – | 1.2 | – | – |
| Cc1c(C(=O)NCC2COC2)cc(Cl)c2c1O[C@@H]([C@H]1CC[C@@H](N(C)C)CC1)CO2 [Compound 167] | – | – | – | – | > 1000 |
| COc1cc(C)[nH]c(=O)c1CNC(=O)c1cc(Cl)c2c(c1C)O[C@@H]([C@H]1CC[C@@H](OCCF)CC1)CO2 [Compound 179] | – | – | 36.6 | – | – |
| COC1CN([C@H]2CC[C@H]([C@H]3COc4c(Cl)cc(C(=O)NCc5c(Cl)cc(C)[nH]c5=O)c(C)c4O3)CC2)C1 [Compound 176] | – | – | 197 | – | – |
| Cc1c(C(=O)NCC2COC2)cc(Cl)c2c1O[C@@H]([C@H]1CC[C@H](N(C)C)CC1)CO2 [Compound 168] | – | – | – | – | > 1000 |
| COc1cc(C)[nH]c(=O)c1CNC(=O)c1cc(Cl)c2c(c1C)O[C@@H]([C@H]1CC[C@@H](N3CC[C@H](OC)C3)CC1)CO2 [Compound 119] | – | – | 12.9 | – | – |
| Cc1cc(Cl)c(CNC(=O)c2cc(Cl)c3c(c2C)O[C@@H]([C@H]2CC[C@H](N(C)C)CC2)CO3)c(=O)[nH]1 [Compound 174] | – | 3.1 | 5.6 | 7.2 | – |
| COC1CN([C@H]2CC[C@H]([C@H]3COc4c(F)cc(C(=O)NCc5c(SC)cc(C)[nH]c5=O)c(C)c4O3)CC2)C1 [Compound 170] | – | – | 46.8 | – | – |
| COc1cc(C)[nH]c(=O)c1CNC(=O)c1cc(Cl)c2c(c1C)O[C@@H]([C@H]1CC[C@H](N3CC[C@H](OC)C3)CC1)CO2 [Compound 120] | – | – | 31.5 | – | – |
| CSc1cc(C)[nH]c(=O)c1CNC(=O)c1cc(Cl)c2c(c1C)O[C@@H]([C@H]1CC[C@@H](N3CC(CF)C3)CC1)CO2 [Compound 34] | 6.2 | – | 5.8 | – | – |
| Cc1cc(Cl)c(CNC(=O)c2cc(Cl)c3c(c2C)O[C@@H]([C@H]2CC[C@@H](N(C)C)CC2)CO3)c(=O)[nH]1 [Compound 173] | – | – | 124 | – | – |
| COCCN(C)[C@H]1CC[C@@H]([C@H]2COc3c(Cl)cc(C(=O)NCc4c(OC)cc(C)[nH]c4=O)c(C)c3O2)CC1 [Compound 107] | 56.9 | 3.2 | – | 17.8 | – |
